Experimental data: ChEMBL document CHEMBL5046216, “Disrupting Tryptophan in the Central Hydrophobic Region Selectively Mitigates Immunomodulatory Activities of the Innate Defence Regulator Peptide IDR-1002” (J Med Chem, 2021)
Calls of active or inactive are those of the source. The calls are words filed in the database; no cut-off is given here.

What was measured:
[1] = Stability of the compound in human HBEC3-KT cells assessed as compound degradation ay 10 uM measured after 16 hrs by FRET assay relative to control; assay type: functional
Mus musculus [2] = assay: Effect on IL-23 level in dust-mite-induced BALB/c mouse model of airway inflammation assessed as greater than 2 fold induction at 6 mg/kg, sc administered for 2 weeks and measured 24 hrs post-HDM challenge by MSD multiplex assay; assay type: functional, organism-based
Mus musculus [3] = assay: (§1) Antiinflammatory activity in house dust-mite-induced BALB/c mouse model of methacholine-induced airway hyperreactivity assessed as reduction in methacholine-induced tissue damping at 6 mg/kg , ip administered for 2 weeks after methacholine-stimulation at 12 mg/ml measured 24 hrs post-HDM challenge; assay type: functional, organism-based
Mus musculus [4] = assay: as §1, with “newtonian resistance” for “tissue damping”, “50” for “12”; assay type: functional
Mus musculus [5] = assay: Effect on MIP1alpha level in dust-mite-induced BALB/c mouse model of airway inflammation assessed as greater than 2 fold induction at 6 mg/kg, sc administered for 2 weeks and measured 24 hrs post-HDM challenge by MSD multiplex assay; assay type: functional, organism-based
HBEC3-KT [6] = assay: Antiinflammatory activity in human HBEC3-KT cells assessed as fold increase in IL-1RA expression at 10 uM measured after 24 hrs by ELISA relative to control; assay type: functional
Mus musculus [7] = assay: Effect on IL-2 level in dust-mite-induced BALB/c mouse model of airway inflammation assessed as greater than 2 fold induction at 6 mg/kg, sc administered for 2 weeks and measured 24 hrs post-HDM challenge by MSD multiplex assay; assay type: functional, organism-based
Mus musculus [8] = assay: Effect on IL-17C level in dust-mite-induced BALB/c mouse model of airway inflammation assessed as greater than 2 fold induction at 6 mg/kg, sc administered for 2 weeks and measured 24 hrs post-HDM challenge by MSD multiplex assay; assay type: functional, organism-based
HBEC3-KT [9] = assay: Antiinflammatory activity in human HBEC3-KT cells assessed as effect on MCP1 expression measured after 24 hrs by ELISA relative to control; assay type: functional, cell-based
[10] = Retention time of the compound by HPLC analysis; assay type: physicochemical
Mus musculus [11] = assay: Effect on IL-25 level in dust-mite-induced BALB/c mouse model of airway inflammation assessed as greater than 2 fold induction at 6 mg/kg, sc administered for 2 weeks and measured 24 hrs post-HDM challenge by MSD multiplex assay; assay type: functional, organism-based
Mus musculus [12] = assay: Effect on IL-6 level in dust-mite-induced BALB/c mouse model of airway inflammation assessed as greater than 2 fold induction at 6 mg/kg, sc administered for 2 weeks and measured 24 hrs post-HDM challenge by MSD multiplex assay; assay type: functional, organism-based
Mus musculus [13] = assay: Antiinflammatory activity in house dust-mite-induced BALB/c mouse model of airway inflammation assessed as suppression of IL-33 abundance in lung tissue lysate at 6 mg/kg, sc administered for 2 weeks and measured 24 hrs post-HDM challenge by ELISA; assay type: functional
Mus musculus [14] = assay: Effect on MIP2 level in dust-mite-induced BALB/c mouse model of airway inflammation assessed as greater than 2 fold induction at 6 mg/kg, sc administered for 2 weeks and measured 24 hrs post-HDM challenge by MSD multiplex assay; assay type: functional, organism-based
Mus musculus [15] = assay: Antiinflammatory activity in house dust-mite-induced BALB/c mouse model of methacholine-induced airway hyperreactivity assessed as reduction in methacholine-induced tissue damping at 6 mg/kg , ip administered for 2 weeks after methacholine-stimulation at 50 mg/ml measured 24 hrs post-HDM challenge; assay type: functional
Mus musculus [16] = assay: Effect on IL-17F level in dust-mite-induced BALB/c mouse model of airway inflammation assessed as greater than 2 fold induction at 6 mg/kg, sc administered for 2 weeks and measured 24 hrs post-HDM challenge by MSD multiplex assay; assay type: functional, organism-based
Mus musculus [17] = assay: Effect on IL-31 level in dust-mite-induced BALB/c mouse model of airway inflammation assessed as greater than 2 fold induction at 6 mg/kg, sc administered for 2 weeks and measured 24 hrs post-HDM challenge by MSD multiplex assay; assay type: functional, organism-based
Mus musculus [18] = assay: Effect on IL-1beta level in dust-mite-induced BALB/c mouse model of airway inflammation assessed as greater than 2 fold induction at 6 mg/kg, sc administered for 2 weeks and measured 24 hrs post-HDM challenge by MSD multiplex assay; assay type: functional, organism-based
Mus musculus [19] = assay: Effect on IL-5 level in dust-mite-induced BALB/c mouse model of airway inflammation assessed as greater than 2 fold induction at 6 mg/kg, sc administered for 2 weeks and measured 24 hrs post-HDM challenge by MSD multiplex assay; assay type: functional, organism-based
Mus musculus [20] = assay: Effect on MCP1 level in dust-mite-induced BALB/c mouse model of airway inflammation assessed as greater than 2 fold induction at 6 mg/kg, sc administered for 2 weeks and measured 24 hrs post-HDM challenge by MSD multiplex assay; assay type: functional, organism-based
Mus musculus [21] = assay: Effect on IL-21 level in dust-mite-induced BALB/c mouse model of airway inflammation assessed as greater than 2 fold induction at 6 mg/kg, sc administered for 2 weeks and measured 24 hrs post-HDM challenge by MSD multiplex assay; assay type: functional, organism-based
Mus musculus [22] = assay: Effect on IL-17A level in dust-mite-induced BALB/c mouse model of airway inflammation assessed as greater than 2 fold induction at 6 mg/kg, sc administered for 2 weeks and measured 24 hrs post-HDM challenge by MSD multiplex assay; assay type: functional, organism-based
Mus musculus [23] = assay: Effect on IL-30 level in dust-mite-induced BALB/c mouse model of airway inflammation assessed as greater than 2 fold induction at 6 mg/kg, sc administered for 2 weeks and measured 24 hrs post-HDM challenge by MSD multiplex assay; assay type: functional, organism-based
Mus musculus [24] = assay: Antiinflammatory activity in house dust-mite-induced BALB/c mouse model of methacholine-induced airway hyperreactivity assessed as reduction in methacholine-induced tissue elastance at 6 mg/kg , ip administered for 2 weeks after methacholine-stimulation at 12 mg/ml measured 24 hrs post-HDM challenge; assay type: functional, organism-based
Mus musculus [25] = assay: Effect on IP10 level in dust-mite-induced BALB/c mouse model of airway inflammation assessed as greater than 2 fold induction at 6 mg/kg, sc administered for 2 weeks and measured 24 hrs post-HDM challenge by MSD multiplex assay; assay type: functional, organism-based
Mus musculus [26] = assay: Effect on IL-22 level in dust-mite-induced BALB/c mouse model of airway inflammation assessed as greater than 2 fold induction at 6 mg/kg, sc administered for 2 weeks and measured 24 hrs post-HDM challenge by MSD multiplex assay; assay type: functional, organism-based
HBEC3-KT [27] = assay: Cytotoxicity against human HBEC3-KT incubated for 24 hrs by LDH assay; assay type: functional
Mus musculus [28] = assay: Effect on MIP3alpha level in dust-mite-induced BALB/c mouse model of airway inflammation assessed as greater than 2 fold induction at 6 mg/kg, sc administered for 2 weeks and measured 24 hrs post-HDM challenge by MSD multiplex assay; assay type: functional, organism-based
Mus musculus [29] = assay: Antiinflammatory activity in house dust-mite-induced BALB/c mouse model of methacholine-induced airway hyperreactivity assessed as reduction in methacholine-induced tissue elastance at 6 mg/kg , ip administered for 2 weeks after methacholine-stimulation at 50 mg/ml measured 24 hrs post-HDM challenge; assay type: functional
Mus musculus [30] = assay: Antiinflammatory activity in house dust-mite-induced BALB/c mouse model of airway inflammation assessed as suppression of total neutrophil count in BALF at 6 mg/kg, sc administered for 2 weeks and measured 24 hrs post-HDM challenge by Wright-Giemsa staining based microscopy; assay type: functional
Mus musculus [31] = assay: Antiinflammatory activity in house dust-mite-induced BALB/c mouse model of airway inflammation assessed as suppression of total leukocyte count in BALF at 6 mg/kg, sc administered for 2 weeks and measured 24 hrs post-HDM challenge by Wright-Giemsa staining based microscopy; assay type: functional
Mus musculus [32] = assay: Effect on IL-4 level in dust-mite-induced BALB/c mouse model of airway inflammation assessed as greater than 2 fold induction at 6 mg/kg, sc administered for 2 weeks and measured 24 hrs post-HDM challenge by MSD multiplex assay; assay type: functional, organism-based
Mus musculus [33] = assay: Effect on IL-10 level in dust-mite-induced BALB/c mouse model of airway inflammation assessed as greater than 2 fold induction at 6 mg/kg, sc administered for 2 weeks and measured 24 hrs post-HDM challenge by MSD multiplex assay; assay type: functional, organism-based
Mus musculus [34] = assay: Effect on IL-17AF level in dust-mite-induced BALB/c mouse model of airway inflammation assessed as greater than 2 fold induction at 6 mg/kg, sc administered for 2 weeks and measured 24 hrs post-HDM challenge by MSD multiplex assay; assay type: functional, organism-based
HBEC3-KT [35] = assay: Antiinflammatory activity in INFgamma-induced MCP1 expressed in human HBEC3-KT cells assessed as fold change measured after 24 hrs by ELISA relative to control; assay type: functional
Mus musculus [36] = assay: Effect on IFNgamma level in dust-mite-induced BALB/c mouse model of airway inflammation assessed as greater than 2 fold induction at 6 mg/kg, sc administered for 2 weeks and measured 24 hrs post-HDM challenge by MSD multiplex assay; assay type: functional, organism-based
HBEC3-KT [37] = assay: Immunomodulatory activity in human HBEC3-KT cells assessed as suppression of INFgamma-induced IL-33 at 10 uM preincubated for 30 mins followed by INFgamma stimulation and measured after 24 hrs by Western blot analysis; assay type: functional; conditions: 0.5 h
HBEC3-KT [38] = assay: Antiinflammatory activity in human HBEC3-KT cells assessed as fold increase in STC1 expression at 10 uM measured after 24 hrs by ELISA relative to control; assay type: functional
Mus musculus [39] = assay: Effect on IL-15 level in dust-mite-induced BALB/c mouse model of airway inflammation assessed as greater than 2 fold induction at 6 mg/kg, sc administered for 2 weeks and measured 24 hrs post-HDM challenge by MSD multiplex assay; assay type: functional, organism-based
Mus musculus [40] = assay: Effect on IL-12p70 level in dust-mite-induced BALB/c mouse model of airway inflammation assessed as greater than 2 fold induction at 6 mg/kg, sc administered for 2 weeks and measured 24 hrs post-HDM challenge by MSD multiplex assay; assay type: functional, organism-based
Mus musculus [41] = assay: Effect on TNF 1 level in dust-mite-induced BALB/c mouse model of airway inflammation assessed as greater than 2 fold induction at 6 mg/kg, sc administered for 2 weeks and measured 24 hrs post-HDM challenge by MSD multiplex assay; assay type: functional, organism-based
Mus musculus [42] = assay: as §1, with “newtonian resistance” for “tissue damping”; assay type: functional, organism-based
Mus musculus [43] = assay: Effect on IL-9 level in dust-mite-induced BALB/c mouse model of airway inflammation assessed as greater than 2 fold induction at 6 mg/kg, sc administered for 2 weeks and measured 24 hrs post-HDM challenge by MSD multiplex assay; assay type: functional, organism-based
Mus musculus [44] = assay: Antiinflammatory activity in house dust-mite-induced BALB/c mouse model of airway inflammation assessed as suppression of total eosinophil count in BALF at 6 mg/kg, sc administered for 2 weeks and measured 24 hrs post-HDM challenge by Wright-Giemsa staining based microscopy; assay type: functional
Mus musculus [45] = assay: Effect on KC 10 level in dust-mite-induced BALB/c mouse model of airway inflammation assessed as greater than 2 fold induction at 6 mg/kg, sc administered for 2 weeks and measured 24 hrs post-HDM challenge by MSD multiplex assay; assay type: functional, organism-based

- Retention_time [10]: 16.16 min
Substance: H-VQRWLIVWRIRK-OH
- Activity [1]: <5%
- Activity (Mus musculus [2]): inactive
- Activity (Mus musculus [3]): Active
- Activity (Mus musculus [4]): Active
- Activity (Mus musculus [5]): inactive
- fold change (FC) (HBEC3-KT [6]): 2.6
- Activity (Mus musculus [7]): inactive
- Activity (Mus musculus [8]): inactive
- Activity (HBEC3-KT [9]): inactive
- Activity (Mus musculus [11]): inactive
- Activity (Mus musculus [12]): inactive
- Activity (Mus musculus [13]): >40%
- Activity (Mus musculus [14]): inactive
- Activity (Mus musculus [15]): Active
- Activity (Mus musculus [16]): inactive
- Activity (Mus musculus [17]): inactive
- Activity (Mus musculus [18]): inactive
- Activity (Mus musculus [19]): inactive
- Activity (Mus musculus [20]): inactive
- Activity (Mus musculus [21]): inactive
- Activity (Mus musculus [22]): inactive
- Activity (Mus musculus [23]): inactive
- Activity (Mus musculus [24]): Active
- Activity (Mus musculus [25]): inactive
- Activity (Mus musculus [26]): inactive
- Activity (HBEC3-KT [27]): <=15%
- Activity (Mus musculus [28]): inactive
- Activity (Mus musculus [29]): Active
- Activity (Mus musculus [30]): 60%
- Activity (Mus musculus [31]): 66%
- Activity (Mus musculus [32]): inactive
- Activity (Mus musculus [33]): inactive
- Activity (Mus musculus [34]): inactive
- fold change (FC) (HBEC3-KT [35]): 3.8
- Activity (Mus musculus [36]): inactive
- Activity (HBEC3-KT [37]): 85%
- fold change (FC) (HBEC3-KT [38]): 4
- Activity (Mus musculus [39]): inactive
- Activity (Mus musculus [40]): inactive
- Activity (Mus musculus [41]): inactive
- Activity (Mus musculus [42]): Active
- Activity (Mus musculus [43]): inactive
- Activity (Mus musculus [44]): 63%
- Activity (Mus musculus [45]): inactive
